The record followed here is patent publication US11714087B2, “Treatment of necroptosis” (priority 2018, dated 2023).

Common to all, as to type: in vivo, Sprague-Dawley rats
Test [1] in a line: Rodent ACLF model (BDL+LPS rats): plasma biochemistry, histone 3 and brain water. As to the method:
(§1) The animal model of ACLF utilised in this study was developed using a well-characterized rodent model of advanced fibrosis induced by bile duct ligation (BDL) with ACLF induced in this model by infusion of LPS. Bile duct ligation, housing, and care of the animals were performed as previously described. Four groups of adult male Sprague-Dawley rats were studied (n=4-8 in each group). The animals were studied 4 weeks after either sham-operation or BDL. The animals in each group were terminated 3-h after administration of LPS (Klebsiella pneumoniae) (0.3 mg/kg/hr, intravenously) or saline under terminal anaesthesia.
Necrostatin 1 (Nec-1, Calbiochem, Sigma Aldrich, UK) was prepared as follows. Nec-1 was redissolved in N-2 methyl-pyrrolidone (NMP) to make a 200 mg/ml stock solution which was then further diluted to an intermediate concentration of 40 mg/ml in NMP. The 40 mg/ml solution was finally diluted to a working concentration of 1 mg/ml in a solution of 30% (2-hydroxypropyl) β-cyclodextrin (Sigma, Cat No H107)/0.5% Citric acid.
(§2) 4. BDL animals administered LPS and Nec-1; This group of BDL rats received an i.p. injection of 3.3 mg/kg Nec-1 followed, by an i.p injection of LPS, 3 hr later.
Animals were sacrificed 3 hours after LPS.
Blood was withdrawn from the carotid line and immediately placed in heparin or EDTA-containing tubes (until full exsanguination), centrifuged (3,500 rpm for 10 min at 4° C.) and the plasma was stored at −80° C. for later use in biochemistry and RIPK3 quantification [Rat RIPK3 (Receptor-interacting serine/threonineprotein kinase) ELISA kit, Cat. No. ER0446, Wuhan Fine Biological Technology Co., Ltd., China]. Organs were harvested and either fixed in formalin for histological assessment or snap frozen.

A further test deals with Caspase 8. Nature of the test: Liver Caspase 8 activity (Caspase-Glo) in rodent ACLF model. Conditions: BDL+NEC-1+LPS group; IQR 313.5-414.3; p=0.020 compared to BDL. As to the method: as §1, §2
(§3) Liver Caspase 3/7 and 8 activities were measured using Caspase-Glo assay kits (Promega). Briefly, cytosolic extracts from liver tissue were obtained by homogenisation in hypotonic extraction buffer [10 mM HEPES, 0.5% Triton X-100, 2 mM DTT, protease inhibitor cocktail (Sigma)] using a TissueLyser LT sytem (Qiagen, UK). […] After quantification using BCA™ Protein Assay Kit (Pierce, UK), protein concentrations of supernatant were adjusted to 1 mg/ml with extraction buffer and stored at −80° C. […] Luminescence was measured using a plate-reading luminometer (FLUOstar Omega, BMG Labtech, UK).

Another test deals with T1, RIPK1 (Rattus norvegicus, UniProt D3ZYL0).
T1 construct: Representative images of liver tissue of sham, BDL, BDL+LPS and BDL+NEC-1+LPS stained for RIPK1; from tissue; host or cells: rat liver (BDL+LPS ACLF model)
T1 sequence (D3ZYL0 1-658): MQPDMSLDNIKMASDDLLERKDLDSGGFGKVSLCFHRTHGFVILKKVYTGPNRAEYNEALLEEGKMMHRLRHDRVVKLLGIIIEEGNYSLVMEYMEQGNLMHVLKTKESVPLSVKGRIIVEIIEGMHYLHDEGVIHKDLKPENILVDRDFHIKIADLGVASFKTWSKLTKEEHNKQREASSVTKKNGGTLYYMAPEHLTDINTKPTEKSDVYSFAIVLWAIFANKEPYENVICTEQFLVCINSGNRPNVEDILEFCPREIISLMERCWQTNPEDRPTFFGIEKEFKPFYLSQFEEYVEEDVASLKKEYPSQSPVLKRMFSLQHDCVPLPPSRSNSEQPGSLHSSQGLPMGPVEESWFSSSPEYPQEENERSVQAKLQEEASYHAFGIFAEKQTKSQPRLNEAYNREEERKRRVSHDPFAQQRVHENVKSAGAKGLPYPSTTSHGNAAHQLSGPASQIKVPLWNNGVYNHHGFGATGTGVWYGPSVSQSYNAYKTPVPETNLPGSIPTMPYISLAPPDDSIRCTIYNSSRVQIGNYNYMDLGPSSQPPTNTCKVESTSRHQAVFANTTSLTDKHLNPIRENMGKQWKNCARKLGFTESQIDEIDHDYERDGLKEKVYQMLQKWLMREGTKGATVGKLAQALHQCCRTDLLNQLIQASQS
In words: Rodent ACLF model (BDL+LPS rats): RIPK1 immunostaining of liver tissue. Conditions: 3.3 mg/kg Nec-1 i.p. 3 hr before LPS, vs BDL+Vehicle+LPS, p=0.009. As to the method: as §1
(§4) Necrostatin 1 (Nec-1, Calbiochem, Sigma Aldrich, UK) was prepared as follows. Nec-1 was redissolved in N-2 methyl-pyrrolidone (NMP) to make a 200 mg/ml stock solution which was then further diluted to an intermediate concentration of 40 mg/ml in NMP. […]
(§5) Terminal deoxynucleotidyl transferase biotin-dUTP nick end labeling (TUNEL) staining of deparaffinised and proteinase K-treated liver and kidney sections was performed using the In-Situ Cell Death Detection kit, POD (Roche, UK) as per manufacturer's protocol. […] Quantitative analysis of immunohistochemistry positive area was assessed by measuring optical density using FIJI Image J software.

For test [2], the system named is liver and kidney sections. In words: Rodent ACLF model (BDL+LPS rats): TUNEL staining of liver and kidney sections (cell death). As to the method:
as §1, §4, §5

The next test has as its system Caspase 3/7. Nature of the test: Liver Caspase 3/7 activity (Caspase-Glo) in rodent ACLF model. Conditions: BDL+NEC-1+LPS group; IQR 1640-3890; p=0.626 compared to BDL. On the procedure: as §1, §2, §3
The test system of another test is RIPK3. Nature of the test: Rodent ACLF model (BDL+LPS rats): plasma RIPK3 by ELISA. Particulars: BDL+NEC-1+LPS vs BDL+Vehicle+LPS. As to the method:
as §1, §4
Blood was withdrawn from the carotid line and immediately placed in heparin or EDTA-containing tubes (until full exsanguination), centrifuged (3,500 rpm for 10 min at 4° C.) and the plasma was stored at −80° C. for later use in biochemistry and RIPK3 quantification [Rat RIPK3 (Receptor-interacting serine/threonineprotein kinase) ELISA kit, Cat. No. ER0446, Wuhan Fine Biological Technology Co., Ltd., China]. […]

Consider `CN1C(=O)C(Cc2c[nH]c3ccccc23)NC1=S` (stereo not drawn) [NEC-1, Necrostatin 1], for which the plasma urea levels result in test [1] (BDL+NEC-1+LPS vs BDL+Vehicle+LPS, p=0.012) is recorded as “significant reduction”. Further, the plasma albumin levels entry in test [1] (BDL+NEC-1+LPS vs BDL+Vehicle+LPS, p=0.017) is given as “significantly higher”. The plasma creatinine entry in test [1] (BDL+NEC-1+LPS vs BDL+Vehicle+LPS, p=0.020) is on record as “significant reduction”. Besides, the “plasma AST” value in test [1] (BDL+NEC-1+LPS vs BDL+Vehicle+LPS, p=0.037) is “significantly lower”. Also, the brain water content result in test [1] (BDL+NEC-1+LPS vs BDL+Vehicle+LPS, p=0.100) was “reduction in brain water content, although not statistically significant”. The “circulating levels of histone 3” value in test [1] (NEC-1 treated group vs BDL+Vehicle+LPS, p=0.048) is “significant reduction in circulating levels of histone 3”. Further, the “Caspase 8 activity in liver homogenates, median” value in the test on Caspase 8 stood at 326.5 RLU. The “expression of RIPK1 in liver (immunostaining optical density)” value on RIPK1 is listed as “significantly decreased”. The “total cell death in the livers (TUNEL staining)” value in test [2] (BDL+NEC-1+LPS vs BDL+Vehicle+LPS, p=0.001) is “significant reduction in total cell death”. Also, the “cell death in kidneys (TUNEL staining)” value in test [2] (BDL+NEC-1+LPS vs BDL+vehicle+LPS, p=0.002) is reported as “significant reduction in cell death”. In the test on Caspase 3/7, the “Caspase 3/7 activity in liver homogenates, median” value amounted to 2857 RLU. Further, the “plasma RIPK3 levels” value in the test on RIPK3 is on record as “reduced markedly”.
